Measurements from patent US11007169B2, “Cis-gnetin H and trans-gnetin H as therapeutic agents” (MIDDLE TENNESSEE STATE UNIVERSITY, priority 2014, dated 2021).

Legend:
Format in all cases: cell-based, human
A549 cells [1] = assay: Multi-parameter cytotoxicity measurement, Arrayscan VTI HCS Reader; conditions: for mitochondria transmembrane potential: A549, after both 24 hrs and 48 hrs
Description: A549 cells were seeded in a 96-well plate (BD Falcon) at a density of 4000 cells/well, and then treated with different concentrations ([…] 100 μM) of cis- or trans-gnetin H for 24 hours and 48 hours. Non-treated cells and cells treated with 100 μM Valinomycin were used as negative and positive controls. After treatment, the cells were stained with a mixture of fluorescent dyes including Hoechst 33342 (blue florescence), cell permeability dye (green florescence) and mitochondrial membrane potential dye (red florescence) (Thermo Scientific). The three dyes allow changes in nuclear morphology, cell membrane permeability and mitochondrial trans-membrane potential to be determined. The cells were fixed and washed, and images for each fluoroprobe were acquired at different channels using suitable filters with a 20× objective and analyzed on the Arrayscan VTI HCS Reader (Thermo Scientific). The Cell Health Profiling BioApplication software (Thermo Scientific) was used for image acquisition and analysis. For each well, at least 400 cells were automatically acquired and analyzed. The average fluorescent intensity was used to quantify changes in each channel and each experiment was performed in triplicate.

A549 cells [2] = assay: Cell cycle analysis by flow cytometry, A549; conditions: 100 μM, 24 hours
Description: A549 and BT20 cells were first synchronized in the G0 phase by culturing cells for 24 hours in serum-free medium and then treated with 100 μM cis- or trans-gnetin H for 24 hours, respectively. Cell cycle analysis was done using propidium iodide (PI) staining as described (An et al., Mol. Cancer Ther. 2007; 6:61-9) and the cells were analyzed on a Guava Flow Cytometer with InCyte software (Millipore).

[3] = tested on: NF-κB nuclear translocation in A549 cells; assay: Inhibition of TNF-α activated NF-κB translocation, Arrayscan VTI HCS Reader; conditions: 100 μM for 2 hrs, then 10 ng/ml TNF-α
Description: A549 cells were seeded in 96 well plates (BD Falcon) at a density of 4000 cells/well, and were treated with 100 μM cis- or trans-gnetin H for 2 hrs, followed by treatment of 10 ng/ml tumor necrosis factor-alpha (TNF-α) (Sigma). Untreated cells and cells treated with only 10 ng/ml TNF-α served as controls. Cells were fixed, permeabilized, and stained with Nuclear factor kappa B (NF-κB) primary antibody, Dylight 488 conjugated secondary antibody, and Hoechst 33342 dye, sequentially. The Hoechst and DyLight fluorophores respectively detect changes in nuclear morphology (blue fluorescence) and NF-κB distribution (green fluorescence). Images were acquired at different channels using suitable filters with a 20× objective and analyzed on the Arrayscan VTI HCS Reader (Thermo Scientific). The Nuclear Translocation BioApplication software (Thermo Scientific) was used for image acquisition and analysis. For each well, at least 400 cells were automatically acquired and analyzed. The translocation index was calculated by measuring the average intensity difference of NF-κB between the identified cytoplasmic region and nuclear region (MEAN_CircRingAvgIntenDiffCh2). Experiments were performed in triplicates.

[4] = tested on: PMA-differentiated THP-1 macrophages; assay: Cell viability Alamar Blue assay, PMA-differentiated THP-1; conditions: for viability of PMA-differentiated THP-1 cells: 3, 6, 13, 25, 50, 100 μM, 24 h treatment
Description: (§1) THP-1 cells were maintained in RPMI 1640 medium supplemented with 10% complement-inactivated FBS and 1% penicillin/streptomycin (complete culture medium) at 37° C. with 5% CO2 supplemented. Cell concentrations were adjusted to desired concentrations for each experiment by centrifugation at 500×g for 5 min and resuspended in complete culture medium with 100 nM of PMA. Cell concentration was adjusted to 5×10^5 cells/ml for all assays and 2.5×10^5 cells/ml were used for NF-κB nuclear translocation assay. Cells were seeded onto 96-, 24-, or 12-well plates and incubated for 48 to 72 h to allow for differentiation. Cells were washed with serum-free RPMI 1640 medium before each experiment to remove the undifferentiated cells.
Differentiated THP-1 cells were treated with various concentrations of cis- and trans-gnetin H and 1 μM of dexamethasone for 24 h. Following treatment, the cell supernatants were replaced with culture medium containing 1× Alamar Blue reagent and incubated for an additional 20-24 h. Cell viability was assessed by measuring Relative Fluorescent Units (RFU) on the SpectraMax M2e microplate reader (Molecular Devices Inc., Sunnyvale, Calif., USA) at Ex 560 nm and Em 590 nm. The results were expressed as a percentage, relative to untreated control cells (FIG. 9). Untreated and LPS-treated cells were tested for the effect of DMSO as vehicle control.
Differentiated THP-1 cells were pretreated with various concentrations of cis-gnetin H, trans-gnetin H, or 1 μM of dexamethasone for 1 h and stimulated with 20 ng/ml of LPS for 4 h. Dexamethasone is a synthetic glucocorticoid that suppresses cytokine response and was used as a positive control (Abraham et al., 2006, J. Exp. Med., 203:1883-9; Steer et al., J. Biol. Chem., 2000, 275(24):18432-40). Supernatants were collected for human cytokine ELISAs and the manufacturer's protocol was followed to assess the cytokine response. Cells remaining after the supernatant collection were tested for relative viability by Alamar Blue cytotoxicity assay as described earlier.

[5] = tested on: phosphorylated p65 (Ser536) in LPS-stimulated THP-1 cells; assay: Western blot, p65 phosphorylation
Description: as §1
Differentiated THP-1 cells were pretreated with various concentrations of cis-gnetin H, trans-gnetin H, or 10 μM of Bay 11-7082 for 1 h and stimulated with 1 μg/ml of LPS for 15 min. Cells were lysed with radio-immunoprecipitation assay (RIPA; 1% Triton X-100, 0.5% Sodium deoxycholate, 0.1% sodium dodecyl sulfate, 150 mM sodium chloride, and 50 mM Tris-chloride) lysis buffer that contained protease and phosphatase inhibitor cocktail. Cell lysates were then tested for protein concentration using a BCA protein assay, and diluted with RIPA lysis buffer to normalize protein concentration in all samples. […]

| Compound | nuclear size (A549 cells [1]; A549, 24 hrs treatment) | nuclear size (A549 cells [1]; A549, 48 hrs treatment) | mitochondria transmembrane potential (A549 cells [1]) | G0-G1 subpopulation, A549 (A549 cells [2]) | M and G2-S subpopulation, A549 (A549 cells [2]) | TNF-α-induced NF-κB nuclear translocation [3] | viability of PMA-differentiated THP-1 cells [4] | cell viability with LPS ([4]; pretreatment 12.5, 25, 50 μM and LPS) | p65 phosphorylation ([5]; only at the highest concentration, 50 μM) | cell viability with LPS relative to untreated control ([4]; pretreated at 50 μM and LPS) | p65 phosphorylation ([5]; both 15 and 30 μM) |
| --- | --- | --- | --- | --- | --- | --- | --- | --- | --- | --- | --- |
| Oc1ccc(/C=C\c2c3c(cc4c2[C@H](c2cc(O)cc(O)c2)[C@@H](c2ccc(O)cc2)O4)O[C@H](c2ccc(O)cc2)[C@H]3c2cc(O)cc(O)c2)cc1 [cis-gnetin H] | no alternation in nuclear size | reduction in nuclear size | reduction in the mitochondria transmembrane potential | increased significantly | significant decrease | significant inhibition | Neither cis- nor trans-gnetin H affected the viability of the cells | no effect on cell viability | significantly inhibited |  |  |
| Oc1ccc(/C=C/c2c3c(cc4c2[C@H](c2cc(O)cc(O)c2)[C@@H](c2ccc(O)cc2)O4)O[C@H](c2ccc(O)cc2)[C@H]3c2cc(O)cc(O)c2)cc1 [trans-gnetin H] | no alternation in nuclear size | reduction in nuclear size | reduction in the mitochondria transmembrane potential | increased significantly | significant decrease | significant inhibition | Neither cis- nor trans-gnetin H affected the viability of the cells |  |  | decreased viability | significantly inhibited |
